Among the data in ChEMBL document CHEMBL1131356, “New generation dopaminergic agents. 2. Discovery of 3-OH-phenoxyethylamine and 3-OH-N1-phenylpiperazine dopaminergic templates” (Bioorg Med Chem Lett, 1998) are Ki and ED50 values, retold here.

Test [1] has as its target D(3) dopamine receptor (Homo sapiens, UniProt P35462). As to the kind of experiment: biochemical.
Description: Binding affinity towards human cloned dopamine (hD3) receptor expressed in CHO cells using [3H]spiperone as radioligand
Test [2] has as its target T1, D(2) dopamine receptor (Rattus norvegicus, UniProt P61169).
Description: Agonistic activity towards dopamine D2 receptor using radioligand [3H]quinpirole in rat striatal membranes
Test [3] concerns the target T1, D(2) dopamine receptor. This is another data set of the same source.
Description: Antagonistic activity towards dopamine D2 receptor using radioligand [3H]spiperone in rat striatal membranes
Test [4] concerns the target T2, D(4) dopamine receptor (Homo sapiens, UniProt P21917).
T2 sequence (P21917 whole entry): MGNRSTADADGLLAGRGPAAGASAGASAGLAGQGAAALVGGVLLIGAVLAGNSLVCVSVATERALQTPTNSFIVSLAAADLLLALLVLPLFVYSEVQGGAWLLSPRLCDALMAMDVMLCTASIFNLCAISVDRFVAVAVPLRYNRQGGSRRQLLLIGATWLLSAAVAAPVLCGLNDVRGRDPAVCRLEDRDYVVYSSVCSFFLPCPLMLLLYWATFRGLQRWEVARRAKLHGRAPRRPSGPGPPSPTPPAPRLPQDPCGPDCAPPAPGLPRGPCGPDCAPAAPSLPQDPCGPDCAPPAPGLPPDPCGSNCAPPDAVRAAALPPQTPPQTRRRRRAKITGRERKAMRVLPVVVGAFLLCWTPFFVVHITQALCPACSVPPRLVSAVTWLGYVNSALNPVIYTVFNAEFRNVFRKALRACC
As to the kind of experiment: Binding affinity towards human cloned Dopamine receptor D4.4 expressed in CHO cells using [3H]spiperone as radioligand. The format is cell-based.

The target of test [5] is D(2) dopamine receptor (Homo sapiens, UniProt P14416). Description: biochemical.
Description: Binding affinity towards human cloned dopamine (hD2s) receptors expressed in CHO cell membranes using [3H]spiperone
Test [6] has as its target T2, D(4) dopamine receptor. As to the kind of experiment: Binding affinity towards human cloned dopamine (hD4.4) receptor expressed in CHO cells using [3H]spiperone as radioligand. The format is cell-based.
Test [7] deals with T3, Adrenergic receptor alpha-1 (Homo sapiens, UniProt P35348+P25100+P35368).
T3 sequence (P35348 whole entry): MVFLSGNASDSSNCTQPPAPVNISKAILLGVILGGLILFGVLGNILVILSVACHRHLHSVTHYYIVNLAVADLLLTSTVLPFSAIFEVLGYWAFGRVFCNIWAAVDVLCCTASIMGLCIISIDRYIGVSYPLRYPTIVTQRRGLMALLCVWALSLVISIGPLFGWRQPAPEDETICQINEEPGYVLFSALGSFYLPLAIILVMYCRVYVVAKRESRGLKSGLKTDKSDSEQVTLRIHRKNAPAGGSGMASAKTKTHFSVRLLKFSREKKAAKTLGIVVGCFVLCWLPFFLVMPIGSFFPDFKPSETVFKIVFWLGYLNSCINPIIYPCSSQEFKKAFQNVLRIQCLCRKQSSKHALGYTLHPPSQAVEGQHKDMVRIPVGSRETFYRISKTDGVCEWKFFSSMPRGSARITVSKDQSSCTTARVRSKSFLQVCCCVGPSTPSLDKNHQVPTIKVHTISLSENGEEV
T3 sequence (P25100 whole entry): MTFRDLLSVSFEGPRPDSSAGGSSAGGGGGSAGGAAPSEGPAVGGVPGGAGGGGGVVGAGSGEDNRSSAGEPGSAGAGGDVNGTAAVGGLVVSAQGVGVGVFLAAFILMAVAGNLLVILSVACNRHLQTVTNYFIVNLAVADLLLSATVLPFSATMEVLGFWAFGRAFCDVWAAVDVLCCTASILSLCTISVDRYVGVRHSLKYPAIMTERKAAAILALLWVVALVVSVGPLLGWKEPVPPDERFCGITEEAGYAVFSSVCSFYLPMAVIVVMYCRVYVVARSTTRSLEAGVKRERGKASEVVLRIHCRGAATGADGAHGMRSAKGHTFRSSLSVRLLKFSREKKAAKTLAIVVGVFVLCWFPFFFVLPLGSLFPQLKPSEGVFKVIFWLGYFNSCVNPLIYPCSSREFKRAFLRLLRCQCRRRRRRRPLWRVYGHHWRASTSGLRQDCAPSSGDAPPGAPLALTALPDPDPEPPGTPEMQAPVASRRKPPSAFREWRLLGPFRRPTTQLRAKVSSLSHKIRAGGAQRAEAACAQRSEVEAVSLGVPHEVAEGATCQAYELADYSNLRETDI
T3 sequence (P35368 whole entry): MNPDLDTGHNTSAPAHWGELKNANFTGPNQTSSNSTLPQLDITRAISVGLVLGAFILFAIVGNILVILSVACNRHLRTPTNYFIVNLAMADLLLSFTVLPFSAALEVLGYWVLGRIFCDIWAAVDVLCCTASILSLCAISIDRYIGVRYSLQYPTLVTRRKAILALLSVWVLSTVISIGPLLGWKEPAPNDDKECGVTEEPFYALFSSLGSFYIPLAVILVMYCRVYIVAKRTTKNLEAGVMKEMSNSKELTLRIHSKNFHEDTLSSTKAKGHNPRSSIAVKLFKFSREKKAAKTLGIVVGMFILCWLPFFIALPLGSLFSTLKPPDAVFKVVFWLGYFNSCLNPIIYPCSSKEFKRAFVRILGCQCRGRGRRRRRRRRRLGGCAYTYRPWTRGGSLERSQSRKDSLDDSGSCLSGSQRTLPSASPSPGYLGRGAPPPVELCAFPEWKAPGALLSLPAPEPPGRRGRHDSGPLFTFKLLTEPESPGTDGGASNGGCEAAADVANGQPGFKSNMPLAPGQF
Description: Binding affinity for Alpha-1 adrenergic receptor. The format is protein assay.

The subject of test [8] is Mus musculus. Description: Dose required to inhibit locomotor activity in mice when administered subcutaneously. Conditions: sc. The format is functional.
Test [9] deals with T4, 5-hydroxytryptamine receptor 1A (Mus musculus, UniProt Q64264).
T4 sequence (Q64264 whole entry): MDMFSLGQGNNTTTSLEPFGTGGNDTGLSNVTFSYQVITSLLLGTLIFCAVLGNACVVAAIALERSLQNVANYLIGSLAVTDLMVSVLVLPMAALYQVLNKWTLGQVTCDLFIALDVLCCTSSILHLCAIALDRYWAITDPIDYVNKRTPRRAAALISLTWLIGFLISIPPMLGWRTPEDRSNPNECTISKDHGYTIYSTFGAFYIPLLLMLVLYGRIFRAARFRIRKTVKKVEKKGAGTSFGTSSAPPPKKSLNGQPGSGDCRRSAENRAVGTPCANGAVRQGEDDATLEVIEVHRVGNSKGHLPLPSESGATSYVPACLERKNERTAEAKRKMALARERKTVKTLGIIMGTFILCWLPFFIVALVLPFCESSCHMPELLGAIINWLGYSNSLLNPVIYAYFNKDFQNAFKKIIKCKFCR
Description: Binding affinity for 5-hydroxytryptamine 1A receptor.

Sequence of D(3) dopamine receptor (P35462 whole entry): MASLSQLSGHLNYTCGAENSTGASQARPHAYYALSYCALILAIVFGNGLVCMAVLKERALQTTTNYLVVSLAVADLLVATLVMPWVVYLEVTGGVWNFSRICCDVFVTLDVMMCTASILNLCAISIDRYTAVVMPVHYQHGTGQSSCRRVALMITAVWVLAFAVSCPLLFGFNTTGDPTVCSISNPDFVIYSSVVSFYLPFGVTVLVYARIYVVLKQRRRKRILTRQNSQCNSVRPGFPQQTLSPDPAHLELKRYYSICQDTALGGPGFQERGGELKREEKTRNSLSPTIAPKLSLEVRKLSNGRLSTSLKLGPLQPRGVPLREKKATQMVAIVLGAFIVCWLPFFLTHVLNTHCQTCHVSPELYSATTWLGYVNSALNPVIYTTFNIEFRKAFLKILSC
T1 sequence (P61169 whole entry): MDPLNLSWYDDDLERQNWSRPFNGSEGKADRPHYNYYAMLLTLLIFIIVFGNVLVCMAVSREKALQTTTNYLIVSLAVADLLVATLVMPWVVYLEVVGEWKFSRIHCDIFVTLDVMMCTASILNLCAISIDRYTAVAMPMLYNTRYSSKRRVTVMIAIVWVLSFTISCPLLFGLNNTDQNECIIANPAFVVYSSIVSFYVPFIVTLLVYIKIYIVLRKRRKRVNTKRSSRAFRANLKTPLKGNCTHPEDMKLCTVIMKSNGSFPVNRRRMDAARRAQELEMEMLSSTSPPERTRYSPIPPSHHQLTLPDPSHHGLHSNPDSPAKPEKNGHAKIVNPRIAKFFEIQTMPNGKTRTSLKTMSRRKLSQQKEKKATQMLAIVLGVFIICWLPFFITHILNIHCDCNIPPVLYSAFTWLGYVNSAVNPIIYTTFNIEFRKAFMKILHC
Sequence of D(2) dopamine receptor (Homo sapiens, UniProt P14416) (P14416 whole entry): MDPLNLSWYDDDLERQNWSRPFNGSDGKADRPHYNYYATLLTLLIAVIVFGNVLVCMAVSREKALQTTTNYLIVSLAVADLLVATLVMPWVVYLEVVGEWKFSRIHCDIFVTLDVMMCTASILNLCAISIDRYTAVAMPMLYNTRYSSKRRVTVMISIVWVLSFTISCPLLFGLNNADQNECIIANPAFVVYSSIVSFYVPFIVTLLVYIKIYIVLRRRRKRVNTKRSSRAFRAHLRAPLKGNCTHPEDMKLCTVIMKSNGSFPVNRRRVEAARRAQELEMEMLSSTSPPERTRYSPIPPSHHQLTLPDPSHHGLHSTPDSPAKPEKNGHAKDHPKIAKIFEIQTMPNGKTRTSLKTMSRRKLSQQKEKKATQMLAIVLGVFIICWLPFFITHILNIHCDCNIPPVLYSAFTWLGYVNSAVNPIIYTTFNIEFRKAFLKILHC

Turning to `c1ccc(CN2CCN(c3ccccc3)CC2)cc1`, the inhibition constant (Ki) was more than 400 nM in test [1]; 16.2 nM in test [2]; 124 nM in test [3]; 267 nM in test [4]; more than 300 nM in [5].
Take `c1ccc(CNCCOc2ccccc2)cc1`: the inhibitory constant (Ki) is 94 nM in test [6]; more than 400 nM in [1]; 68.4 nM in [2]; 241 nM in [3]; more than 300 nM in test [5].
In the case of `Oc1ccc(N2CCN(Cc3ccccc3)CC2)cc1`, the Ki in [1] is more than 400 nM; in [2], 120 nM; in test [4], 91.8 nM; in [5], more than 300 nM.
With `Oc1ccc(OCCNCc2ccccc2)cc1`, the inhibition constant Ki in [6] was 277 nM; in test [1], more than 5000 nM; in test [2], 113 nM; in [5], more than 10000 nM.
Regarding `Oc1cccc(N2CCN(Cc3ccccc3)CC2)c1`, the Ki in test [1] is 28.9 nM; in test [7], more than 1000 nM; in test [9], more than 1000 nM; in [4], more than 400 nM. The ED50 in [8] was 1.4 mg/kg.
`CS(=O)(=O)Nc1cc(OCCNCc2cccs2)ccc1Cl`: the inhibitory constant (Ki) in test [6] came to 137 nM; in [1] it was 27.8 nM; in test [2], 2.6 nM; in [3] it was 6 nM; in [5], 9 nM.
Turning to `Oc1cccc(OCCNCc2ccccc2)c1`, the Ki in test [6] is 80.6 nM; in test [1], 11 nM; in test [7] it was 5291 nM; in [2], 3.6 nM; in test [3], 101 nM; in test [9], 1780 nM. Besides, in [5], the Ki was found to be 75.8 nM. The molecule also yielded an ED50 in test [8] of 0.08 mg/kg.
For `Oc1ccccc1OCCNCc1ccccc1`, the Ki in test [6] is 297 nM; in test [1], 281 nM; in test [2], 9.6 nM; in test [3], 191 nM; in test [5], 456 nM.
The like results for `CS(=O)(=O)Nc1cccc(OCCNCc2ccccc2)c1` were, in that order, 500 nM, 42.5 nM, 4.4 nM, 29.3 nM and 37.6 nM.
For `Oc1ccccc1N1CCN(Cc2ccccc2)CC1`, the inhibition constant Ki is more than 400 nM in test [1]; 64.7 nM in test [2]; 118 nM in test [3]; more than 400 nM in test [4]; more than 300 nM in test [5].
On to `CS(=O)(=O)Nc1cc(OCCNCc2ccccc2)ccc1F`, for which the Ki is more than 5000 nM in test [1], 7.9 nM in test [2], 24.1 nM in test [3] and more than 10000 nM in [5].
The like results for `CS(=O)(=O)Nc1cc(OCCNCc2ccccc2)ccc1Cl` were, in that order, 11 nM, 1.6 nM, 3 nM and 75.8 nM.
`CS(=O)(=O)Nc1cc(OCCNCc2cccs2)ccc1F`: the inhibition constant Ki in test [1] is more than 400 nM; in test [2], 19.7 nM; in test [3], 11.7 nM; in test [4] it was more than 400 nM; in [5] it was more than 300 nM.
On to `Nc1cc(OCCNCc2ccccc2)ccc1Cl`, for which the Ki is 27.2 nM in [6], more than 1000 nM in test [1], 237 nM in [2] and more than 1000 nM in test [5].

As usually defined, the Ki is a measure of affinity in units of concentration, obtained from inhibition or displacement. Low values mean tighter binding, high ones weaker binding. By ED50 is commonly meant the dose that gives a 50% effect, or the effect in half of the subjects. Low readings indicate greater potency, high ones weaker potency.
